Data from US20260132128A1, “COMPOUND FOR RECOVERING P53 MUTATION FUNCTION AND USE THEREOF” (SHENZHEN ZHONGGE BIOLOGICAL TECHNOLOGY CO., LTD., priority 2022, published 2026).
Marks after values point to notes of the source that are not given here.

How the values were obtained:
p53 Y220C [1] = molecular target: T1, p53 Y220C (Homo sapiens, UniProt P04637, P309S/R273H/Y220C); assay: DNA binding test (HTRF): binding of P53Y220C protein to DNA; format: biochemical; settings: HTRF, activation of p53 Y220C (aa 94-312) binding to biotin DNA
T1 construct: a truncated mutant containing only amino acids 94-312 of p53; made in house; host or cells: E. coli
Method: (§1) In order to detect the ability of the aforementioned compounds to increase the binding of P53Y220C protein to DNA, the binding activity of p53 Y220C was measured by homogeneous time-resolved fluorescence (HTRF). Recombinant His-tagged p53 Y220C for HTRF measurement was expressed in bacteria E. coli. The recombinant protein was a truncated mutant containing only amino acids 94-312 of p53, and its sequence was […] […] VEGNLR […] TFRh[…] […]. The sense strand of the DNA double strand was 5′-[…]-3′, with a biotin tag at the 5′ end for activity assay, and the antisense strand was 5′-[…]-3′ 40 mL of assay buffer (20 mM Tris HCL, pH 7.5, 50 mM NaCl, 2 mM MgCl2, 0.02% Tween 20, 0.01% BSA, 1 mM DTT) was prepared. 10 mM compound was prepared and subjected to 3-fold dilution to obtain 10 dose gradient dilutions of the compound. 20 nL of the compound was added to a 384-well assay plate (PerkinElmer 6007299) using an Echo 655 Liquid Handler. P53Y220C protein was dissolved in assay buffer to reach a final concentration of 150 nM, and 5 μL thereof was added to each well, and incubated at room temperature for 5 min. DNA was dissolved in assay buffer to reach a final concentration of 150 nM, and 5 μL thereof was added to each well, and incubated at room temperature for 15 min. Anti 6HIS-XL665 (Cisbio 61HISXLB) was dissolved in assay buffer to reach a final concentration of 20 nM, and 5 μL thereof was added to each well. Streptavidin-Eu cryptate (Cisbio 610SAKLA) was dissolved in assay buffer to reach a final concentration of 0.625 nM, and 5 μL thereof was added to each well, and incubated at 27° C. for 1 hour. The plate was then read for signal values on an Envision (PerkinElmer 2105-0020) plate reader at 665 nm and 615 nm, respectively. […] Activation rate={(A-C)/(C)}*100%, A=(signal value at 665 nm/signal value at 615 nm); C=average signal of negative control (wherein, negative control referred to 0.1% DMSO).

p53 Y220C [2] = molecular target: T2, p53 Y220C (Homo sapiens, UniProt P04637, Y220C); assay: as above; format: biochemical; settings: multiple ratio of EC50 of the compound to the reference compound, DNA binding test
T2 construct: a truncated mutant containing only amino acids 94-312 of p53; made in house; host or cells: E. coli
Method: as §1

NUGC-3 cells = assay: NUGC-3 cell proliferation assay (CTG); format: cell-based, human; settings: for GI50: Homo sapiens, NUGC-3, 144 h, 6 days, CTG; for Compound GI50 (nM)/Reference compound GI50 (nM): multiple ratio of GI50 of the compound to the reference compound
Method: In order to detect the inhibitory effect of the aforementioned compounds on the proliferation ability of NUGC-3 cells, 250 NUGC-3 cells (Nanjing Cobioer Biosciences Co., Ltd., CBP60492) were seeded into a 384-well plate (Corning 3765), 35 μL per well, and incubated overnight in a constant temperature incubator at 37° C. and 5% CO2. Then, 40 nL of the compound was added to the 384-well plate using an Echo 655 Liquid Handler, with a maximum final concentration of 10 μM, 1:3 serial dilutions, and a total of 10 doses. The culture was performed at 37° C. and 5% CO2 for 6 days. The plate was taken out from the incubator and equilibrated at room temperature for 10 minutes. 20 μL of CTG (Promage G7572) was added to each well of the plate according to the platemap. The plate was centrifuged at 1000 rpm for 1 min. The lysis of cells was induced by mixing on a shaker for 2 min. The plate was centrifuged at 1000 rpm for 1 min. Incubation was performed at room temperature for 10 min to stabilize luminescence signals. Luminescence values were recorded by Envision (PerkinElmer 2105-0020). GraphPad 9.0 was used to fit the inhibition rate and compound concentration into a nonlinear regression curve (dose response-variable slope) to calculate GI50, inhibition rate={1−(A−B)/(C−B)}*100%, A=signal value of compound; B=average signal of blank control; C=average signal of negative control (wherein negative control was 0.1% DMSO).

SMILES	EC50 (p53 Y220C [1]) [µM]	Compound EC50 (nM)/Reference compound EC50 (nM) (p53 Y220C [2])	GI50 (NUGC-3 cells) [µM]	Compound GI50 (nM)/Reference compound GI50 (nM) (NUGC-3 cells)
CN1CCC(Nc2cccn3c(CC(F)(F)F)c(-c4nnc(CNC(=O)c5ccn(C(C)(C)C)c5)s4)nc23)CC1 [Compound 19]	0.1 to 0.5	B (B: EC50 of the reference compound<EC50 of the compound≤3.0*EC50 of the reference compound)	≥ 5	C (C: GI50 of the compound ≥ 3 * GI50 of the reference compound)
CNC(=O)c1ccc(NCC#Cc2nc3c(N[C@@H]4CC[C@@H](N5CC6(CCOCC6)C5)C[C@@H]4F)cccn3c2CC(F)(F)F)c(OC)c1 [Compound 46]	< 0.1			
COc1cc(C(=O)NCC(F)F)ccc1NCC#Cc1nc2c(NC3CC[C@@H](N4CC5(COC5)C4)C[C@@H]3F)cccn2c1CC(F)(F)F (stereo partly shown) [Compound 55]		B (B: EC50 of the reference compound<EC50 of the compound≤3.0*EC50 of the reference compound)		C (C: GI50 of the compound ≥ 3 * GI50 of the reference compound)
CNC(=O)c1ccc(NCC#Cc2nc3c(NC4CC[C@@H](N5CC6(COC6)C5)C[C@@H]4F)cccn3c2CC(F)(F)F)c(OCC(F)(F)F)c1 (stereo partly shown) [Compound 59]		B (B: EC50 of the reference compound<EC50 of the compound≤3.0*EC50 of the reference compound)		C (C: GI50 of the compound ≥ 3 * GI50 of the reference compound)
CNC(=O)c1ccc(NCC#Cc2nc3c(NC4CC[C@@H](N5CC6(CCOCC6)C5)C[C@@H]4F)cccn3c2CC(F)(F)F)c(OC)c1 (stereo partly shown) [Compound 46]		A (A: EC50 of the compound≤EC50 of the reference compound)	< 1	B (B: GI50 of the reference compound < GI50 of the compound ≤ 3.0 * GI50 of the reference compound)
CNC(=O)c1ccc(NCC#Cc2nc3c(N[C@@H]4CC[C@@H](N5CCCC5)C[C@@H]4F)cccn3c2CC(F)(F)F)c(OC)c1 [Compound 41]	< 0.1			
CONC(=O)c1ccc(NCC#Cc2nc3c(NC4CC[C@@H](N5CC6(COC6)C5)C[C@@H]4F)cccn3c2CC(F)(F)F)c(OC)c1 (stereo partly shown) [Compound 53]		A (A: EC50 of the compound≤EC50 of the reference compound)	< 1	C (C: GI50 of the compound ≥ 3 * GI50 of the reference compound)
COc1cc(NCC#Cc2nc3c(NC4CCN(C)CC4)cccn3c2CC(F)(F)F)c(NC(C)=O)cn1 [Compound 26]		C (C: EC50 of the compound≥3*EC50 of the reference compound)		C (C: GI50 of the compound ≥ 3 * GI50 of the reference compound)
CNC(=O)c1ccc(NCC#Cc2nc3c(NC4CC[C@@H](N5CC6(COC6)C5)C[C@@H]4F)cccn3c2CC(F)(F)F)c(OCCF)c1 (stereo partly shown) [Compound 63]		B (B: EC50 of the reference compound<EC50 of the compound≤3.0*EC50 of the reference compound)		C (C: GI50 of the compound ≥ 3 * GI50 of the reference compound)
CNC(=O)c1ccc(NCC#Cc2cc3c(NC4CC[C@@H](N5CC6(COC6)C5)C[C@@H]4F)ccnn3c2CC(F)(F)F)c(OC)c1 (stereo partly shown) [Compound 68]		C (C: EC50 of the compound≥3*EC50 of the reference compound)		C (C: GI50 of the compound ≥ 3 * GI50 of the reference compound)
CNC(=O)c1ccc(NCC#Cc2nc3c(NC4CC[C@@H](N5CC6(COC6)C5)C[C@@H]4F)cccn3c2CC(F)(F)F)c(OC2CCC2)c1 (stereo partly shown) [Compound 61]		B (B: EC50 of the reference compound<EC50 of the compound≤3.0*EC50 of the reference compound)		C (C: GI50 of the compound ≥ 3 * GI50 of the reference compound)
CNC(=O)c1ccc(NCC#Cc2nc3c(N[C@@H]4CC[C@@H](N5CC6(CCC6)C5)C[C@@H]4F)cccn3c2CC(F)(F)F)c(OC)c1 [Compound 42]	< 0.1			
CNC(=O)c1ccc(NCC#Cc2nc3c(NC4CC[C@@H](N5CC6(COC6)C5)C[C@@H]4F)cccn3c2CC(F)(F)F)c(OC2COC2)c1 (stereo partly shown) [Compound 60]		B (B: EC50 of the reference compound<EC50 of the compound≤3.0*EC50 of the reference compound)		C (C: GI50 of the compound ≥ 3 * GI50 of the reference compound)
CNC(=O)c1ccc(NCC#Cc2nc3c(N[C@@H]4CC[C@@H](N5CC6(COC6)C5)C[C@@H]4F)cccn3c2CC(F)(F)F)c(OCF)c1 [Compound 58]	< 0.1			
CNC(=O)c1ccc(NCC#Cc2nc3c(N[C@@H]4CC[C@@H](N5CC6(COC6)C5)C[C@@H]4F)cccn3c2CC(F)(F)F)c(OC2CC2)c1 [Compound 57]	< 0.1			
CNC(=O)c1ccc(NCC#Cc2nc3c(N[C@@H]4CCC(N5CCCCC5)C[C@@H]4F)cccn3c2CC(F)(F)F)c(OC)c1 (stereo partly shown) [Compound 43]		C (C: EC50 of the compound≥3*EC50 of the reference compound)		C (C: GI50 of the compound ≥ 3 * GI50 of the reference compound)
CNC(=O)c1ccc(NCC#Cc2cc3c(N[C@@H]4CCN(C)C[C@@H]4F)ccnn3c2CC(F)(F)F)c(OC)c1 [Compound 85]		C (C: EC50 of the compound≥3*EC50 of the reference compound)		C (C: GI50 of the compound ≥ 3 * GI50 of the reference compound)
CNC(=O)c1ccc(NCC#Cc2nc3c(NC4CC[C@@H](N5CCCC5)C[C@@H]4F)cccn3c2CC(F)(F)F)c(OC)c1 (stereo partly shown) [Compound 41]		B (B: EC50 of the reference compound<EC50 of the compound≤3.0*EC50 of the reference compound)	< 1	B (B: GI50 of the reference compound < GI50 of the compound ≤ 3.0 * GI50 of the reference compound)
CNC(=O)c1ccc(NCC#Cc2cc3c(NC4CC[C@@H](N5CC6(COC6)C5)C[C@@H]4F)cccn3c2CC(F)(F)F)c(OC)c1 (stereo partly shown) [Compound 65]		B (B: EC50 of the reference compound<EC50 of the compound≤3.0*EC50 of the reference compound)	< 1	A (A: GI50 of the compound ≤ GI50 of the reference compound)
CNC(=O)c1ccc(NCC#Cc2nc3c(NC4CC[C@@H](N5CC6(CCCCC6)C5)C[C@@H]4F)cccn3c2CC(F)(F)F)c(OC)c1 (stereo partly shown) [Compound 45]		B (B: EC50 of the reference compound<EC50 of the compound≤3.0*EC50 of the reference compound)		C (C: GI50 of the compound ≥ 3 * GI50 of the reference compound)
CONC(=O)c1ccc(NCC#Cc2nc3c(N[C@@H]4CC[C@@H](N5CC6(COC6)C5)C[C@@H]4F)cccn3c2CC(F)(F)F)c(OC)c1 [Compound 53]	< 0.1			
CNC(=O)c1ccc(NCC#Cc2nc3c(NC4CC[C@@H](N5CC6(COC6)C5)C[C@@H]4F)cccn3c2CC(F)(F)F)c(OCC(F)F)c1 (stereo partly shown) [Compound 62]		B (B: EC50 of the reference compound<EC50 of the compound≤3.0*EC50 of the reference compound)		C (C: GI50 of the compound ≥ 3 * GI50 of the reference compound)
COc1cc(C(=O)NC2CC(F)C2)ccc1NCC#Cc1nc2c(NC3CC[C@@H](N4CC5(COC5)C4)C[C@@H]3F)cccn2c1CC(F)(F)F (stereo partly shown) [Compound 56]		C (C: EC50 of the compound≥3*EC50 of the reference compound)		C (C: GI50 of the compound ≥ 3 * GI50 of the reference compound)
